The values that follow come from patent US20210284647A1, “N-(3-(IMIDAZO[1,2-B]PYRIDAZIN-3-YLETHYNYL)-4-METHYLPHENYL)-5-PHENYL-4,5-DIHYDRO-1H-PYRAZOLE-1-CARBOXAMIDE DERIVATIVE, AND PHARMACEUTICAL COMPOSITION CONTAINING SAME AS ACTIVE INGREDIENT FOR TREATING KINASE-RELATED DISEASES” (VORONOIBIO INC., priority 2018, published 2021).

Assay [1] has as its system human Jurkat T cells deficient in FADD. Put plainly: Cell protection effect under apoptosis-inducing condition (TNF-α). It counts as cell-based. The settings on record: 40 ng of TNF-α, 50 hours, CellTiter-Glo, read-out: I2.I Cell EC50. How it is done:
The cell protection effect of the compounds according to the present invention under the condition of inducing apoptosis by TNF-α was confirmed by […]. An apoptosis inducing factor such as TNF-α was treated to induce apoptosis of human Jurkat T cells deficient in FADD, to which the example compound was treated, and the cell protection effect was confirmed through the following analysis. Jurkat T cells deficient in FADD were cultured using RPMI medium (Hyclone) containing 10% FBS. When performing the test, the cells were seeded in a 96-well plate containing a medium suitable for the cell line at the density of 10,000 cells/well, and cultured in a 37° C. 5% CO2 incubator for 24 hours. Then, each well was treated with 40 ng of TNF-α, and the compounds prepared in the above examples were each treated with a 3-fold concentration gradient with 1 μM as the highest concentration. As the solvent control, dimethyl sulfoxide (DMSO) was treated at the concentration of 0.05% (v/v), which was the same concentration as that used for the compound treatment. Then, the cells were cultured for 50 hours. To confirm the degree of viability of the cells, a mixture provided in CellTiter-Gloe Luminescent Cell Viability Assay Kit (Promega) was added to the culture medium of the cells, followed by further culture at 37° C. for 30 minutes. Then, luminescence fluorescence was measured. The degree of inhibition of apoptosis induction according to the treatment concentration of each compound was calculated based on the fluorescence of the solvent control cells not treated with the compound. At this time, the concentration of each compound inhibiting 50% was determined as EC50 (μM). EC50 of each compound was calculated using Prism (version 7.01, GraphPad) software.

In the next assay the target is T1, human GST-RIPK1 (Homo sapiens, UniProt Q13546).
T1 construct: GST; purchased signalchem
T1 sequence (Q13546 1-375 limits assumed): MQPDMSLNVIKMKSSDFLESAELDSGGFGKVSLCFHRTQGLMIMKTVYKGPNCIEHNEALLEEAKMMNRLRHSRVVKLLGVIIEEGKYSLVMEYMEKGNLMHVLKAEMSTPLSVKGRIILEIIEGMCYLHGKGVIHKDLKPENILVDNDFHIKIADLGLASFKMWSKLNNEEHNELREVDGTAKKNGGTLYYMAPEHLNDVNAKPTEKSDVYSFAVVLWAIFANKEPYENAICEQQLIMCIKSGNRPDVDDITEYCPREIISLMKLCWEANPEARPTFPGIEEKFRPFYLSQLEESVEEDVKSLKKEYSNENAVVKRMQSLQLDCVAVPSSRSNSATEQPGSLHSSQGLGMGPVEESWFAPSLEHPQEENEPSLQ
Put plainly: RIPK1 inhibitory activity (ADP-Glo kinase assay). The settings on record: human GST-RIPK1 10 ng, ATP 50 uM, 25° C. for 4 hours, read-out: Enzyme IC50. Format: biochemical. How it is done:
The following experiment was performed to evaluate the inhibitory activity of the example compounds according to the present invention against RIPK1 (receptor-interacting serine/threonine protein kinase 1).
The example compound was reacted with the purified human GST-RIPK1 (1375, signalchem) enzyme to evaluate the enzyme inhibitory activity in the following manner. The composition of the reaction buffer used herein was as follows: 40 mM Tris-Hcl pH 7.4, 20 mM MgCl2, 0.5 mg/ml, BSA and 0.5 uM DTT. All the test materials were reacted in the reaction buffer. After reacting human GST-RIPK1 (1375, 10 ng), purified ATP (50 uM) and a specific substrate solution at 25° C. for 4 hours, the enzyme activity was confirmed using an in vitro ADP-Glo™ kinase assay (promega). Luminoscence was measured by reacting the enzyme activity reaction solution, ADP-Glo reaction solution, and enzyme activity detection solution at the ratio of 2:2:1. The degree of enzyme activity inhibition according to the treatment concentration of each compound was calculated based on the fluorescence of the enzyme activity of the solvent control not treated with the compound. At this time, the concentration of each compound inhibiting 50% of the enzyme activity was determined as IC50 (nM). IC50 of each compound was determined with three data sets and calculated using Prism (version 7.01, GraphPad) software.
(ADP-Glo first removes unused ATP, then detects ADP through luciferase.)

`Cc1ccc(NC(=O)N2N=CCC2c2ccccc2)cc1C#Cc1cnc2cccnn12` (stereo not shown) [Example 1, N-(3-(imidazo[1,2-b]pyridazin-3-ylethynyl)-4-methylphenyl)-5-phenyl-4,5-dihydro-1H-pyrazole-1-carboxamide 2,2,2-trifluoroacetate]: the EC50 (commonly the midpoint of the concentration-response curve) in assay [1] came out at 0.17 nM. Regarding `Cc1ccc(NC(=O)N2N=CC[C@H]2c2ccccc2)cc1C#Cc1cnc2cccnn12` [Example 2, (S)—N-(3-(imidazo[1,2-b]pyridazin-3-ylethynyl)-4-methylphenyl)-5-phenyl-4,5-dihydro-1H-pyrazole-1-carboxamide 2,2,2-trifluoroacetate], the IC50 (usually the concentration needed to halve the response being measured) on human GST-RIPK1 turned out to be 5.1 nM. Moreover, the 50% effective concentration (EC50) in assay [1] was 0.06 nM. The matching figures for `Cc1ccc(NC(=O)N2N=CC[C@@H]2c2ccccc2)cc1C#Cc1cnc2cccnn12` [Example 3, (R)—N-(3-(imidazo[1,2-b]pyridazin-3-ylethynyl)-4-methylphenyl)-5-phenyl-4,5-dihydro-1H-pyrazole-1-carboxamide 2,2,2-trifluoroacetate]: 221 nM and 314 nM. The corresponding values for `Cc1ccc(NC(=O)N2N=CCC2c2cc(F)cc(F)c2)cc1C#Cc1cnc2cccnn12` (stereo not shown) [Example 4, 5-(3,5-difluorophenyl)-N-(3-(imidazo[1,2-b]pyridazin-3-ylethynyl)-4-methylphenyl)-4,5-dihydro-1H-pyrazole-1-carboxamide 2,2,2-trifluoroacetate] are 7.68 nM and 1.7 nM. The matching figures for `Cc1ccc(NC(=O)N2N=CC[C@H]2c2cc(F)cc(F)c2)cc1C#Cc1cnc2cccnn12` [Example 5, (S)-5-(3,5-difluorophenyl)-N-(3-(imidazo[1,2-b]pyridazin-3-ylethynyl)-4-methylphenyl)-4,5-dihydro-1H-pyrazole-1-carboxamide 2,2,2-trifluoroacetate]: 4.56 nM and 0.4 nM. In the case of `Cc1ccc(NC(=O)N2N=CC[C@@H]2c2cc(F)cc(F)c2)cc1C#Cc1cnc2cccnn12` [Example 6, (R)-5-(3,5-difluorophenyl)-N-(3-(imidazo[1,2-b]pyridazin-3-ylethynyl)-4-methylphenyl)-4,5-dihydro-1H-pyrazole-1-carboxamide 2,2,2-trifluoroacetate], the IC50 at human GST-RIPK1 is over 1000 nM. The EC50 in assay [1] amounted to 249 nM. Regarding `Cc1ccc(NC(=O)N2N=CCC2c2ccc(C(F)(F)F)cc2)cc1C#Cc1cnc2cccnn12` (stereo not shown) [Example 7, N-(3-(imidazo[1,2-b]pyridazin-3-ylethynyl)-4-methylphenyl)-5-(4-(trifluoromethyl)phenyl)-4,5-dihydro-1H-pyrazole-1-carboxamide 2,2,2-trifluoroacetate], the half-maximal inhibitory concentration (IC50) on human GST-RIPK1 stood at 134 nM. In addition, the EC50 in assay [1] is 1.9 nM. The corresponding values for `Cc1ccc(NC(=O)N2N=CCC2c2cccc(F)c2)cc1C#Cc1cnc2cccnn12` (stereo not shown) [Example 8, 5-(3-fluorophenyl)-N-(3-(imidazo[1,2-b]pyridazin-3-ylethynyl)-4-methylphenyl)-4,5-dihydro-1H-pyrazole-1-carboxamide 2,2,2-trifluoroacetate] are 83.6 nM and 0.59 nM.

As to `Cc1ccc(NC(=O)N2N=CC[C@H]2c2cccc(F)c2)cc1C#Cc1cnc2cccnn12` [Example 9, (S)-5-(3-fluorophenyl)-N-(3-(imidazo[1,2-b]pyridazin-3-ylethynyl)-4-methylphenyl)-4,5-dihydro-1H-pyrazole-1-carboxamide 2,2,2-trifluoroacetate], the IC50 at human GST-RIPK1 is 19.5 nM. Further, the 50% effective concentration (EC50) in assay [1] was found to be 0.41 nM.

With `Cc1ccc(NC(=O)N2N=CC[C@@H]2c2cccc(F)c2)cc1C#Cc1cnc2cccnn12` [Example 10, (R)-5-(3-fluorophenyl)-N-(3-(imidazo[1,2-b]pyridazin-3-ylethynyl)-4-methylphenyl)-4,5-dihydro-1H-pyrazole-1-carboxamide 2,2,2-trifluoroacetate], the IC50 on human GST-RIPK1 is 801 nM. Also, the EC50 in assay [1] turned out to be 326 nM. `Cc1ccc(NC(=O)N2N=CCC2c2ccc(F)cc2)cc1C#Cc1cnc2cccnn12` (stereo not shown) [Example 11, 5-(4-fluorophenyl)-N-(3-(imidazo[1,2-b]pyridazin-3-ylethynyl)-4-methylphenyl)-4,5-dihydro-1H-pyrazole-1-carboxamide 2,2,2-trifluoroacetate]: the IC50 at human GST-RIPK1 is 47.4 nM. Moreover, in assay [1], the EC50 amounted to 0.35 nM. The matching figures for `Cc1ccc(NC(=O)N2N=CC[C@H]2c2ccc(F)cc2)cc1C#Cc1cnc2cccnn12` [Example 12, (S)-5-(4-fluorophenyl)-N-(3-(imidazo[1,2-b]pyridazin-3-ylethynyl)-4-methylphenyl)-4,5-dihydro-1H-pyrazole-1-carboxamide 2,2,2-trifluoroacetate]: 19.1 nM and 0.2 nM. On to `Cc1ccc(NC(=O)N2N=CC[C@@H]2c2ccc(F)cc2)cc1C#Cc1cnc2cccnn12` [Example 13, (R)-5-(4-fluorophenyl)-N-(3-(imidazo[1,2-b]pyridazin-3-ylethynyl)-4-methylphenyl)-4,5-dihydro-1H-pyrazole-1-carboxamide 2,2,2-trifluoroacetate], for which the IC50 at human GST-RIPK1 worked out at 503 nM. For the same compound, in assay [1], the EC50 was determined as 321 nM. The corresponding values for `Cc1ccc(NC(=O)N2N=CCC2c2cccc(Cl)c2)cc1C#Cc1cnc2cccnn12` (stereo not shown) [Example 14, 5-(3-chlorophenyl)-N-(3-(imidazo[1,2-b]pyridazin-3-ylethynyl)-4-methylphenyl)-4,5-dihydro-1H-pyrazole-1-carboxamide 2,2,2-trifluoroacetate] are 5.3 nM and 0.2 nM.

Consider `Cc1ccc(NC(=O)N2N=CCC2c2ccc(Cl)cc2)cc1C#Cc1cnc2cccnn12` (stereo not shown) [Example 15, 5-(4-chlorophenyl)-N-(3-(imidazo[1,2-b]pyridazin-3-ylethynyl)-4-methylphenyl)-4,5-dihydro-1H-pyrazole-1-carboxamide 2,2,2-trifluoroacetate], for which the IC50 on human GST-RIPK1 was 4.3 nM. Moreover, the EC50 in assay [1] was found to be 0.1 nM. The corresponding values for `Cc1ccc(NC(=O)N2N=CCC2c2cccnc2)cc1C#Cc1cnc2cccnn12` (stereo not shown) [Example 16, N-(3-(imidazo[1,2-b]pyridazin-3-ylethynyl)-4-methylphenyl)-5-(pyridin-3-yl)-4,5-dihydro-1H-pyrazole-1-carboxamide 2,2,2-trifluoroacetate] are 1.8 nM and 0.05 nM. Take `Cc1ccc(NC(=O)N2N=CCC2c2ccccn2)cc1C#Cc1cnc2cccnn12` (stereo not shown) [Example 17, N-(3-(imidazo[1,2-b]pyridazin-3-ylethynyl)-4-methylphenyl)-5-(pyridin-2-yl)-4,5-dihydro-1H-pyrazole-1-carboxamide 2,2,2-trifluoroacetate]: on human GST-RIPK1, the IC50 stood at 1.8 nM. Also, in assay [1], the EC50 was 0.2 nM. The corresponding values for `Cc1ccc(NC(=O)N2N=CCC2c2ccncc2)cc1C#Cc1cnc2cccnn12` (stereo not shown) [Example 18, N-(3-(imidazo[1,2-b]pyridazin-3-ylethynyl)-4-methylphenyl)-5-(pyridin-4-yl)-4,5-dihydro-1H-pyrazole-1-carboxamide 2,2,2-trifluoroacetate] are 2.4 nM and 0.3 nM. The matching figures for `O=C(Nc1cccc(C#Cc2cnc3cccnn23)c1)N1N=CCC1c1ccccc1` (stereo not shown) [Example 19, N-(3-(imidazo[1,2-b]pyridazin-3-ylethynyl)phenyl)-5-phenyl-4,5-dihydro-1H-pyrazole-1-carboxamide 2,2,2-trifluoroacetate]: 3.8 nM and 0.26 nM.
